Measurements from US12180146B2, “Antihypertensive polyol compound and derivative thereof” (TAO PHARMACEUTICAL (SUZHOU) CO., LTD, priority 2020, dated 2024).

Columns and labels:
[1] = tested on: monocrotaline-induced pulmonary hypertension model rats (MCT-PAH); assay: Monocrotaline-induced pulmonary hypertension model rats, oral (gavage) treatment for 21 days; format: in vivo, SD rats; conditions: 100 mg/kg
[2] = tested on: hypoxic pulmonary hypertension model rats; assay: Hypoxic pulmonary hypertension model rats, oral (gavage) treatment for 28 days; format: in vivo, SD rats; conditions: hypoxic PAH rats, po

CCc1cccc(C(O)CO)c1 (stereo not shown) [Compound 1, 1-(3-ethylphenyl)-1,2-ethylene glycol]
2 × MT/ED [1]: 0.27 ± 0.062 | RVHI [1]: 0.31 ± 0.059 | RVSP [1]: 39.72 ± 3.46 mmHg | mPAP [1]: 9.21 ± 2.69 mmHg | RVHI ([1]; listed as compound 1, 100 mg/kg): 0.31±0.059 | RVSP ([2]; 10 mg/kg): 70.28 ± 4.64 mmHg | mPAP ([2]; 10 mg/kg): 25.26 ± 3.46 mmHg | RVHI ([2]; 10 mg/kg, RV/(LV+S)): 0.467 ± 0.030 | 2 × MT/ED ([2]; 10 mg/kg, medium thickness ratio of small pulmonary arteries): 0.361 ± 0.020 | 2 × MT/ED ([2]; 25 mg/kg): 0.323 ± 0.022 | RVHI ([2]; 25 mg/kg): 0.472 ± 0.026 | RVSP ([2]; 25 mg/kg): 71.34 ± 2.12 mmHg | mPAP ([2]; 25 mg/kg): 22.36 ± 1.78 mmHg | 2 × MT/ED ([2]; 50 mg/kg): 0.304 ± 0.021 | RVHI ([2]; 50 mg/kg): 0.456 ± 0.019 | RVSP ([2]; 50 mg/kg): 67.46 ± 4.28 mmHg | mPAP ([2]; 50 mg/kg): 21.66 ± 3.28 mmHg | 2 × MT/ED ([2]; 100 mg/kg): 0.266 ± 0.014 | RVHI ([2]; 100 mg/kg): 0.301 ± 0.017 | RVSP ([2]; 100 mg/kg): 59.12 ± 2.12 mmHg | mPAP ([2]; 100 mg/kg): 15.89 ± 1.12 mmHg | 2 × MT/ED ([2]; 200 mg/kg): 0.241 ± 0.011 | RVHI ([2]; 200 mg/kg): 0.254 ± 0.022 | RVSP ([2]; 200 mg/kg): 54.38 ± 2.98 mmHg | mPAP ([2]; 200 mg/kg): 15.21 ± 1.92 mmHg
